Assay results taken from patent publication US9067937B2 (priority 2012, dated 2015).
Where a name gives a salt, the structure may show the parent alone. Read-outs that look alike come from different tables or passages of the source.

Experiments:
A549 cells = assay: Cell-based assay, anti-proliferative activity (Cell Counting Kit-8, 72 hours); set-up: species or system human; details: read-out: IC50 (μM) (A549)
Procedure, shortened: (§1)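 Cells seeded at 2,000–3,000 cells/well and exposed to candidate MELK inhibitors for 72 hours; growth measured with Cell Counting Kit-8. IC50 values calculated from the growth read-out.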

22Rv1 cells = assay: as above; set-up: species or system human; details: read-out: IC50 (μM) (22Rvl)
Procedure, shortened: as §1

DU4475 cells = assay: as above; set-up: species or system human; details: read-out: IC50 (μM) (DU4475)
Procedure, shortened: as §1

T47D cells = assay: as above; set-up: species or system human; details: read-out: IC50 (μM) (T47D)
Procedure, shortened: as §1

HT1197 cells = assay: Cell-based assay, anti-proliferative activity, MELK-negative control (Cell Counting Kit-8, 72 hours); set-up: species or system human; details: read-out: IC50 (μM) (HTll97)
Experimental: 100 micro-L of cell suspension was seeded onto 96-well microtiter plate (ViewPlate-96FTC, PerkinElmer). The initial cell concentration of 22Rv1, T47D, A549, DU4475, and HT1197 were 3,000 cells/well, 2,000 cells/well and 2,500 cells/well, respectively. Cellular growth was determined using Cell Counting Kit-8 (DOJINDO) at 72 hours after the exposure of the candidate inhibitors. […] Accurate IC50 values were calculated as described previously.

MELK = MELK (Homo sapiens, UniProt Q14680); assay: Kinase assay (IMAP fluorescence polarization, FITC-labeled histone H3 peptide); format: biochemical; details: 50 micro-M ATP
Procedure, shortened: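 Kinase (0.8 ng/μL) reacted with 100 nM FITC-histone H3 peptide and 50 μM ATP in 20 mM HEPES, 0.3 mM MgCl2, 2 mM DTT, 0.01% Tween-20, pH 7.4, for 1 hour at room temperature. Phosphorylation read by IMAP fluorescence polarization after adding binding solution; IC50 from four-parameter fit.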

Chain of MELK (Q14680 whole entry, looked up): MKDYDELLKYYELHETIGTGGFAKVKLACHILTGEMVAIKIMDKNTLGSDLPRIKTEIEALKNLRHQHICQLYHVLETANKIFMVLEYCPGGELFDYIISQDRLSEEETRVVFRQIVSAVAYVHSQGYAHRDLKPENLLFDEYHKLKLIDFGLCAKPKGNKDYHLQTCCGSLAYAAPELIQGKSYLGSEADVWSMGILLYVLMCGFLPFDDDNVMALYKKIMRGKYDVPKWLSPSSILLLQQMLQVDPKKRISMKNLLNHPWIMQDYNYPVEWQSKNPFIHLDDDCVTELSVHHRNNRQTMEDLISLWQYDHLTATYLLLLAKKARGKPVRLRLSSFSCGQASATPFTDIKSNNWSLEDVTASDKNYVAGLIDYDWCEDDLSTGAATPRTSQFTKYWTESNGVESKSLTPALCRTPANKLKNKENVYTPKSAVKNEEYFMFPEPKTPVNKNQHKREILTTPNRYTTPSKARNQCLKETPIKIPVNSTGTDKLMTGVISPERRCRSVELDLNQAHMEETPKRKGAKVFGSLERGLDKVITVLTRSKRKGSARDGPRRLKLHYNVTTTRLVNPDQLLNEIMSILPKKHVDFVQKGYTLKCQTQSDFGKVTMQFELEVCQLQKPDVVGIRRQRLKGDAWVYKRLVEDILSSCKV

Compound	IC50 (A549 cells; Homo sapiens, A549, 72 h) [µM]	IC50 (22Rv1 cells; Homo sapiens, 22Rv1, 72 h) [µM]	IC50 (DU4475 cells; Homo sapiens, DU-4475, 72 h) [µM]	IC50 (T47D cells; Homo sapiens, T47D, 72 h) [µM]	IC50 (HT1197 cells; Homo sapiens, HT1197, 72 h) [µM]	IC50 (MELK) [µM]	IC50 (A549 cells; A549 cells, 72 hours) [µM]	IC50 (22Rv1 cells; 22Rv1 cells, 72 hours) [µM]	IC50 (DU4475 cells; DU4475 cells, 72 hours) [µM]	IC50 (T47D cells; T47D cells, 72 hours) [µM]	IC50 (HT1197 cells; HT1197 cells (MELK-negative control), 72 hours) [µM]
CC(=O)c1cnc2ccc(-c3cnc4[nH]ccc4c3)nc2c1N[C@H]1CC[C@H](CN(C)C)CC1 [Example 82, 1-(4-{trans-4-[(Dimethylamino)methyl]cyclohexylamino}-6-(1H-pyrrolo[2,3-b]pyridin-5-yl)-1,5-naphthyridin-3-yl)ethanone trihydrochloride]	0.33	0.37	0.65	0.32	2.3	0.013					
CC(=O)c1cnc2ccc(-c3cc(F)c(O)c(Cl)c3)nc2c1N[C@H]1CC[C@H](N(C)C)CC1 [Example 3, 1-{6-(3-Chloro-5-fluoro-4-hydroxyphenyl)-4-[trans-4-(dimethylamino)cyclohexylamino]-1,5-naphthyridin-3-yl}ethanone dihydrochloride]	0.0091	0.006	0.0033	0.0026	0.39	0.0012					
CC(=O)c1cnc2ccc(-c3cc(F)c(O)c(Cl)c3)nc2c1Nc1cccc(CCN2CCCC2)c1 [Example 20, 1-[6-(3-Chloro-5-fluoro-4-hydroxyphenyl)-4-{3-[2-(pyrrolidin-1-yl)ethyl]phenylamino}-1,5-naphthyridin-3-yl]ethanone dihydrochloride]	0.31	0.81	0.21	0.5	4.8	0.14					
CC(=O)c1cnc2ccc(-c3cc(Cl)c(O)c(Cl)c3)nc2c1N[C@H]1CC[C@H](NC(=O)[C@@H]2CCCN2)CC1 [Example 75, (S)—N-{4-[3-Acetyl-6-(3,5-dichloro-4-hydroxyphenyl)-1,5-naphthyridin-trans-4-ylamino]-cyclohexyl}pyrrolidine-2-carboxamide dihydrochloride]	0.21	0.099	0.021	0.036	8.4	0.001					
CCC(=O)c1cnc2ccc(-c3cc(F)c(O)c(Cl)c3)nc2c1Nc1ccc(N2CCC[C@H](N)C2)nc1 [Example 208, (S)-1-(4{[6-(3-aminopiperidin-1-yl)pyridin-3-yl]amino}-6-(3-chloro-5-fluoro-4-hydroxyphenyl)-1,5-naphthyridin-3-yl)propan-1-one trihydrochloride]	0.063	0.026	0.021	0.015	0.86	0.0026					
COc1c(Cl)cc(-c2ccc3ncc(C(C)=O)c(N[C@H]4CC[C@H](CN(C)C)CC4)c3n2)cc1Cl [Example 85, 1-[6-(3,5-Dichloro-4-methoxyphenyl)-4-{trans-4-[(dimethylamino)methyl]-cyclohexylamino}-1,5-naphthyridin-3-yl]ethanone dihydrochloride]	2.3	0.77	2.3	0.43	6.5	0.12					
CC(=O)c1cnc2ccc(-c3cc(F)c(O)c(Cl)c3)nc2c1Nc1ccc(NCCN(C)C)nc1 [Example 39, 1-[6-(3-Chloro-5-fluoro-4-hydroxyphenyl)-4-{6-[2-(dimethylamino)ethylamino]pyridin-3-ylamino}-1,5-naphthyridin-3-yl]ethanone trihydrochloride]	0.44	0.38	0.19	0.12	10	0.03					
CC(=O)c1cnc2ccc(-c3cc(Cl)c(O)c(Cl)c3)nc2c1Nc1ccc(NCCN(C)C)nc1 [Example 38, 1-[6-(3,5-Dichloro-4-hydroxyphenyl)-4-{6-[2-(dimethylamino)ethylamino]pyridin-3-ylamino}-1,5-naphthyridin-3-yl]ethanone trihydrochloride]	0.26	0.24	0.069	0.11	9.5	0.011					
COc1cc(-c2ccc3ncc(C(C)=O)c(Nc4ccc(OCCN(C)C)nc4)c3n2)cc(Cl)c1O [Example 23, 1-[6-(3-Chloro-4-hydroxy-5-methoxyphenyl)-4-{6-[2-(dimethylamino)ethoxy]pyridin-3-ylamino}-1,5-naphthyridin-3-yl]ethanone dihydrochloride]	0.47	1.3	0.41	0.38	8.9	0.0089					
CC(=O)c1cnc2ccc(-c3cc(Cl)c(O)c(Cl)c3)nc2c1N[C@H]1CC[C@H](CN2CC[C@@H](F)C2)CC1 [Example 209, 1-[6-(3,5-dichloro-4-hydroxyphenyl)-4-({4-[((R)-3-fluoropyrrolidin-1yl)methyl]cyclohexyl}amino)-1,5-naphthyridin-3-yl]ethanone dihydrochloride]	0.037	0.032	0.01	0.036	0.12	0.002					
1-[6-(3-Chloro-5-fluoro-4-hydroxyphenyl)-4-(trans-4-hydroxycyclohexylamino)-1,5-naphthyridin-3-yl]ethanone hydrochloride [Example 92]						0.012	0.053	0.061	0.018	0.036	0.53
CC(=O)c1cnc2ccc(-c3ccc(O)c(OC(F)(F)F)c3)nc2c1N[C@H]1CC[C@H](CN(C)C)CC1 [Example 11, 1-(4-{trans-4-[(Dimethylamino)methyl]cyclohexylamino}-6-[4-hydroxy-3-(trifluoromethoxy)-phenyl]-1,5-naphthyridin-3-yl)ethanone dihydrochloride]	0.042	0.066	0.049	0.027	0.14	0.0027					
N[C@@H]1CCCN(c2ccc(Nc3c(C(=O)C4CC4)cnc4ccc(-c5cc(F)c(O)c(Cl)c5)nc34)cn2)C1 [Example 202, (R)-(4-{[6-(3-aminopiperidin-1-yl)pyridin-3-yl]amino}-6-(3-chloro-5-fluoro-4-hydroxyphenyl)-1,5-naphthyridin-3-yl) (cyclopropyl) methanone]	0.0054	0.0044	0.001	0.0038	0.047	0.00046					
CC(=O)c1cnc2ccc(-c3cc(F)c(O)c(Cl)c3)nc2c1Nc1ccc(CCN(C)C)cc1 [Example 30, 1-[6-(3-Chloro-5-fluoro-4-hydroxyphenyl)-4-{4-[2-(dimethylamino)ethyl]phenylamino}-1,5-naphthyridin-3-yl)ethanone dihydrochloride]	0.14	0.17	0.041	0.11	1.2	0.0059					
CC(=O)c1cnc2ccc(-c3cc(Cl)c(O)c(Cl)c3)nc2c1N[C@H]1CC[C@H](CN(C)CCO)CC1 [Example 48, 1-[6-(3,5-Dichloro-4-hydroxyphenyl)-4-(trans-4-{[(2-hydroxyethyl)(methyl)amino]methyl}-cyclohexylamino)-1,5-naphthyridin-3-yl]ethanone dihydrochloride]	0.02	0.0092	0.0034	0.0068	0.57	0.0006					
